Molecules are shown by their SMILES. Non-standard residues stand in square brackets, D forms with d. Residues, ends and D or L forms follow the SMILES beside them. *: point of attachment. Orn = NCCC[C@H](N)C(=O)O; Cbz = O=C(OCc1ccccc1)*; Boc = CC(C)(C)OC(=O)*; OBn = c1ccc(CO*)cc1; Sar = CNCC(=O)O

The values that follow come from patent publication US4668397A, “Novel cyclic octapeptide, method for production of said octapeptide, and ion extracting/separating agent using said octapeptide as principal component” (Agency of Industrial Science & Technology, priority 1984, dated 1987).

A short description of assay [1]: Ion transfer through chloroform phase between two water phases in a U-shaped tube. The note with it: for Amount of ions transferred: K, 200 μM in chloroform phase, pH 7.5, 10 hours; for transferring ability for potassium ion: from Table 2. On the procedure: (§1) In a U-shaped tube 15 mm in inside diameter, two water phases (a), (b) (each 10 ml) were separated by an intervening chloroform phase (15 ml). In the water phase (a), a chloride of potassium ions and calcium ions (10 mM), picric acid (25 mM), and good buffer HEPES (10 mM) were dissolved and adjusted to pH 7.5 with lithium hydroxide. In the chloroform phase, the compound of this invention was dissolved in a concentration of 200 μM. The two water phases (a), (b) were stirred with a mechanical stirrer and the chloroform phase was stirred with a magnetic stirrer. After 10 hours of stirring, the amount of potassium ions or calcium ions which had been transferred from the water phase (a) through the chloroform phase into the water phase (b) was determined based on the absorption of picrate anion. For comparison, the procedure described above was repeated by using a naturally occurring calcium-ion ionophore A 23187, the cyclic tetrapeptide, i.e. cyclo(glycyl-ε-benzyloxycarbonyl-L-lysyl-sarcosyl-L-prolyl) (D-1), the linear octapeptide, i.e. tertiary butyloxycarbonylglycyl-ε-benzyloxycarbonyl-L-lysyl-sarcosyl-L-propyl-glycyl-ε-benzyloxycarbonyl-L-lysyl-sarcosyl-L-proline methyl ester (E-1), and using no substance dissolved in the chloroform phase.

Assay [2] can be described thus: Ion transfer through chloroform phase (liquid membrane) between two water phases in a U-shaped tube. Conditions: for Amount of ions transferred: Ca^2+, 200 μM in chloroform phase, pH 7.5, 10 hours; for transferring ability for calcium ion: from Table 2. How it is done:
as §1

Assay [3] is described as follows: Extraction equilibrium constant, chloroform / aqueous metal ion chloride and picric acid, absorbance of picrate anion. The note with it: chloroform/water, pH 7.4, average of five concentrations. On the procedure: The compound (C-1) of this invention obtained in Example 1 was dissolved in concentrations of […] in chloroform. Then 5-ml portions of each of the five solutions so prepared were mixed one each with 5-ml aqueous solutions (pH 7.4) of metallic ion chloride (10 mM), picric acid (25 mM), and good buffer HEPES (10 mM) and shaken for 30 minutes. The shaken mixtures were left stading for one hour. Then, based on the absorbance of picrate anion in the chloroform phase, the extraction equilibrium constants of the compound (C-1) of this invention for the various ions were determined. The results so obtained were compared with those of the comparative cyclic tetrapeptide, i.e. cyclo(glycyl-ε-benzyloxycarbonyl-L-lysyl-sarcosyl-L-prolyl) (D-1), and the linear octapeptide, i.e. tertiary butyloxycarbonylglycyl-ε-benzyloxycarbonyl-L-lysyl-sarcosyl-L-prolylglycyl-ε-benzyloxycarbonyl-[…]-L-proline methyl ester (E-1).
The results expressed as logarithms of the average values obtained by using the five chloroform solutions of varying concentration are shown in Table 1.

Assay [4] can be described thus: Solution extraction and recovery of calcium ion. Conditions: 1 g compound in 100 ml chloroform; sample pH 6.9; back-extraction with 2M ammonium chloride and 2M hydrochloric acid. How it is done:
(§2) The amount 100 ml of chloroform solution having dissolved therein 1 g of the compound (C-1) of this invention obtained in Example 1 and 100 ml of a sample solution containing 1 g of magnesium picrate and 100 mg of […] (adjusted to pH 6.9 with acetic acid and sodium acetate) were thoroughly shaken and then left standing for 30 minutes. From the resultant mixture, the chloroform phase was collected. The chloroform phase was washed with 100 ml of an aqueous solution containing 0.01M of lithium picrate (adjusted to pH 6.9 with acetic acid and sodium acetate), followed by collection of chloroform phase. This washing operation was repeated three times to collect the chloroform phase. This chloroform phase was thoroughly shaken with 100 ml of an aqueous solution containing 2M of ammonium chloride and 2M of hydrochloric acid. The shaken mixture was left standing at rest for 30 minutes, followed by collection of the aqueous phase. The aqueous phase was tested for recovery of calcium ion. […] At that time, the concentration of magnesium was 10^-3 times the initial concentration. Thus, by the method of solution extraction using the compound of this invention, calcium ions could be efficiently separated from a large amount of magnesium ions.

Assay [5] can be described thus: Solution extraction, separation from magnesium. Conditions: after extraction and recovery of calcium ion; sample with 1 g magnesium picrate. On the procedure:
as §2

With `CNc1ccc2oc(C[C@H]3O[C@@]4(CC[C@H]3C)O[C@H]([C@H](C)C(=O)c3ccc[nH]3)[C@H](C)C[C@H]4C)nc2c1C(=O)O` [Compound A23187], the entries for the “Amount of ions transferred” value in assay [1] and in assay [2] were 0.1 μ · mol and 4.7 μ · mol, respectively.

In the case of `CN1CC(=O)N2CCC[C@H]2C(=O)NCC(=O)N[C@@H](CCCCNC(=O)OCc2ccccc2)C(=O)N(C)CC(=O)N2CCC[C@H]2C(=O)NCC(=O)N[C@@H](CCCCNC(=O)OCc2ccccc2)C1=O` [Compound C-1, cyclo(glycyl-ε-benzyloxycarbonyl-L-lysyl-sarcosyl-L-prolyl)2] (cyclo(GK(Cbz)[Sar]PGK(Cbz)[Sar]P)), the “Logarithm of ion extraction equilibrium constant” value (“Logarithm” for short) is recorded as 6.0 in assay [3] (Ba^2+); 5.6 in assay [3] (Ca^2+); 2.6 in assay [3] (K^+); 3.4 in assay [3] (Mg^2+); 2.3 in assay [3] (Na^+); 2.6 in assay [3] (Rb^+). Moreover, the figures for the “Amount of ions transferred” value in assay [1] and in assay [2] were 0.5 μ · mol and 5.4 μ · mol, respectively. Besides, in assay [4], the “recovery ratio of calcium ion” value turned out to be 95%. Moreover, the “concentration of magnesium relative to the initial concentration” value in assay [5] is on record as 10^-3 times the initial concentration.

On to `CN1CC(=O)N2CCC[C@H]2C(=O)NCC(=O)N[C@@H](CCCNC(=O)OCc2ccccc2)C(=O)N(C)CC(=O)N2CCC[C@H]2C(=O)NCC(=O)N[C@@H](CCCNC(=O)OCc2ccccc2)C1=O` [Compound C-2, cyclo(glycyl-δ-benzyloxycarbonyl-L-ornithyl-sarcosyl-L-prolyl)2] (cyclo(G[Orn](Cbz)[Sar]PG[Orn](Cbz)[Sar]P)), for which the “Amount of ions transferred” value was determined as 0.4 μ · mol in assay [1] and 5.1 μ · mol in assay [2].

Consider `CN1CC(=O)N2CCC[C@H]2C(=O)NCC(=O)N[C@@H](CCC(=O)OCc2ccccc2)C(=O)N(C)CC(=O)N2CCC[C@H]2C(=O)NCC(=O)N[C@@H](CCC(=O)OCc2ccccc2)C1=O` [Compound C-3, cyclo(glycyl-γ-benzyl-L-glutamylsarcosyl-L-prolyl)2] (cyclo(E(OBn)[Sar]PGE(OBn)[Sar]PG)), for which the “Amount of ions transferred” value in assay [1] is 0.3 μ · mol; in assay [2], 4.9 μ · mol.

Take `CN1CC(=O)N2CCC[C@H]2C(=O)NCC(=O)N[C@@H](CC(=O)OCc2ccccc2)C(=O)N(C)CC(=O)N2CCC[C@H]2C(=O)NCC(=O)N[C@@H](CC(=O)OCc2ccccc2)C1=O` [Compound C-4, cyclo(glycyl-β-benzyl-L-aspartylsarcosyl-L-prolyl)2] (cyclo(D(OBn)[Sar]PGD(OBn)[Sar]PG)): the results for the “Amount of ions transferred” value in assay [1] and in assay [2] were 0.3 μ · mol and 4.8 μ · mol, respectively.

In the case of `CN1CC(=O)N2CCC[C@H]2C(=O)NCC(=O)N[C@@H](CCCCNC(=O)OCc2ccccc2)C1=O` [Compound D-1, cyclo(glycyl-ε-benzyloxycarbonyl-L-lysyl-sarcosyl-L-prolyl)] (cyclo(GK(Cbz)[Sar]P)), the “Logarithm” value came to 1.9 in assay [3] (Ba^2+); 1.7 in assay [3] (Ca^2+); 1.2 in assay [3] (K^+); 1.2 in assay [3] (Mg^2+); 1.1 in assay [3] (Na^+); 1.2 in assay [3] (Rb^+). For the same compound, the figures for the “Amount of ions transferred” value in assay [1] and in assay [2] were 0.1 μ · mol and 0.4 μ · mol, respectively. For the same compound, the “transferring ability for potassium ion” value in assay [1] is “virtually no transferring ability”. In assay [2], the “transferring ability for calcium ion” value is on record as “virtually no transferring ability”.

On to `COC(=O)[C@@H]1CCCN1C(=O)CN(C)C(=O)[C@H](CCCCNC(=O)OCc1ccccc1)NC(=O)CNC(=O)[C@@H]1CCCN1C(=O)CN(C)C(=O)[C@H](CCCCNC(=O)OCc1ccccc1)NC(=O)CNC(=O)OC(C)(C)C` [Compound E-1, tertiary butyloxycarbonylglycyl-ε-benzyloxycarbonyl-L-lysyl-sarcosyl-L-propyl-glycyl-ε-benzyloxycarbonyl-L-lysyl-sarcosyl-L-proline methyl ester] (Boc-GK(Cbz)[Sar]PGK(Cbz)[Sar]P-OMe), for which the “Logarithm” value came to 1.3 in assay [3] (Ba^2+); 1.1 in assay [3] (Ca^2+); 0.9 in assay [3] (K^+); 0.9 in assay [3] (Mg^2+); 0.9 in assay [3] (Na^+); 0.9 in assay [3] (Rb^+). Also, the “Amount of ions transferred” value in assay [1] amounted to 0.2 μ · mol; in assay [2], 0.3 μ · mol. The “transferring ability for potassium ion” value in assay [1] is listed as “virtually no transferring ability”. Besides, the “transferring ability for calcium ion” value in assay [2] is on record as “virtually no transferring ability”.
